Results taken from US4159328A, “Tetrahydro-1,3,5-thiadiazin-4-one derivative” (Nihon Nohyaku Co., Ltd., priority 1977, dated 1979).

Legend:
Assay type in all cases: in vivo
[1] = system: larvae of brown planthopper (Nilaparvata lugens Stahl); assay: Test Example 1: insecticidal activity against larvae of brown planthopper; details: 120 h, third-instar larvae, 25° C., 5 days after treatment
Method: Insecticidal activity against larvae of brown planthopper (Nilaparvata lugens Stahl).
(§1) Testing method: Five rice seedlings of the 1.5 leaf age were dipped in a test composition of 400 ppm concentration for 30 seconds. After air-drying, the seedlings were placed in a glass tube containing 1 ml of water and infested with five third-instar larvae of brown planthopper. The glass tube was left standing in a constant temperature cabinet at 25° C. and 5 or 7 days after the treatment, dead-and-survival was observed. Mortality was calculated from the results of 3-replication test.

[2] = system: two-spotted spider mite (Tetranychus urticae Koch); assay: Test Example 3: activity to two-spotted spider mite; details: 120 h, 1,000 ppm, 5 days after treatment
From the text: Activity to two-spotted spider mite (Tetranychus urticae Koch).
Testing method: Two-spotted spider mites were set free on the pot-planted soybean in a greenhouse. On the next day, a test composition of 1,000 ppm concentration was sprayed over the soybean by means of a spray gun. Two days or five days after the treatment, dead-and-survival was inspected to calculate the mortality.

[3] = system: larvae of green rice leafhopper (Nephotettix cincticeps Uhler); assay: Test Example 5: activity against larvae of green rice leafhopper; details: 168 h, 400 ppm, second-instar larvae, 25° C., seven days after treatment, read-out: Mortality
Method: Activity against larvae of green rice leafhopper (Nephotettix cincticeps Uhler).
Testing method: Five rice seedlings of the 1.5 leaf age were dipped in a test composition of 400 ppm concentration for 30 seconds. After air-drying, the seedlings were placed in a glass tube containing 1 ml of water and infested with five second-instar larvae of green rice leafhopper. The glass tube was left standing in a constant temperature cabinet at 25° C. Seven days after the treatment, dead-and-survivalwas inspected to calculate the mortality (3-replication test).

[4] = system: larvae of house mosquito (Culex pipiens pallens Coquillett); assay: Test Example 6: insecticidal activity to larvae of house mosquito; details: 120 h
Method: Insecticidal activity to larvae of house mosquito (Culex pipiens pallens Coquillett).
Test method: In a 200-ml beaker, was placed together with a feed 100 ml of a test composition diluted with deionized water to 10 ppm concentration. The test composition was infested with 20 first-instar larvae of house mosquito and the beaker was covered with a sheet of Japanese paper. The beaker was kept in a constant temperature cabinet at 25° C. Five days after the treatment, the dead-and-survival was inspected to calculate the mortality.

[5] = system: larvae of white-backed planthopper (Sogatella furcifera Horvath); assay: Test Example 2: insecticidal activity against larvae of white-backed planthopper; details: 168 h, 400 ppm, first-instar larvae, 25° C., seven days after treatment, read-out: Mortality
Method: Insecticidal activity against larvae of white-backed planthopper (Sogatella furcifera Horvath).
as §1, with “first-instar” for “third-instar”, “white-backed” for “brown”, “seven” for “5 or 7”

Compound	mortality at 400 ppm [1]	mortality at 1000 ppm [2]	mortality at 400 ppm [3]	mortality at 10 ppm [4]	mortality at 400 ppm [5]
CCC(C)N=C1SCN(c2ccccc2Cl)C(=O)N1C(C)CC (centres unmarked) [Compound 248]	100%	100%	100%	90%	
Cc1ccccc1N1CSC(=NC(C)C)N(C(C)C)C1=O [Compound 301, 2-Isopropylimino-3-isopropyl-5-(o-tolyl)-tetrahydro-1,3,5-thiadiazin-4-one]	100%	100%		90%	
C=CCN1C(=O)N(c2ccc(C)cc2)CSC1=NC(C)C [Compound 315]	100%	100%		100%	
CC(C)N=C1SCN(c2cccc(C(F)(F)F)c2)C(=O)N1C [Compound 259]	60%	100%		100%	
CC(C)N=C1SCN(c2ccccc2Cl)C(=O)N1C(C)C [Compound 244, 2-Isopropylimino-3-isopropyl-5-(o-chlorophenyl)-tetrahydro-1,3,5-thiadiazin-4-one]	100%	70%	100%	100%	100%
CCC(C)N=C1SCN(c2cccc(C(F)(F)F)c2)C(=O)N1C(C)C (centres unmarked) [Compound 269]	80%			100%	
CC(C)N1C(=O)N(c2ccc(Cl)cc2)CSC1=NC(C)(C)C [Compound 196, 2-t-Butylimino-3-isopropyl-5-(p-chlorophenyl)-tetrahydro-1,3,5-thiadiazin-4-one]	100%	100%			90%
Cc1ccccc1N1CSC(=NCc2ccccc2)N(Cc2ccccc2)C1=O [Compound 308]	60%	100%		100%	
CCC(C)N=C1SCN(c2ccccc2)C(=O)N1CC (centres unmarked) [Compound 130]			100%		
CC(C)N=C1SCN(c2ccc(Cl)cc2)C(=O)N1C(C)C [Compound 194]	100%	100%	100%	80%	
CCN1C(=O)N(c2ccc(F)cc2)CSC1=NC(C)(C)C [Compound 280]	100%	80%		90%	
CN=C1SCN(c2ccc(Cl)cc2)C(=O)N1C [Compound 188, 2-Methylimino-3-methyl-5-(p-chlorophenyl)tetrahydro-1,3,5-thiadiazin-4-one]	100%	90%	100%	100%	
CC(C)N=C1SCN(c2cccc(Cl)c2Cl)C(=O)N1C(C)C [Compound 402]	80%	100%			
CCC(C)N1C(=O)N(c2ccc(C)cc2C)CSC1=NC(C)(C)C (centres unmarked) [Compound 380]	100%	100%			
CC(C)N=C1SCN(c2ccc(Br)cc2)C(=O)N1C(C)C [Compound 293, 2-Isopropylimino-3-isopropyl-5-(p-bromophenyl)-tetrahydro-1,3,5-thiadiazin-4-one]	100%	100%			
CC(C)N1C(=O)N(c2ccccc2Cl)CSC1=NC(C)(C)CC(C)(C)C [Compound 247]	90%	70%		100%	
Cc1cccc(C)c1N1CSC(=NC(C)(C)C)N(C(C)C)C1=O [Compound 388, 2-t-butylimino-3-isopropyl-5-(2,6-dimethylphenyl)tetrahydro-1,3,5-thiadiazin-4-one]	100%	100%			
CCc1cccc(CC)c1N1CSC(=NC(C)C)N(C(C)C)C1=O [Compound 395, 2-Isopropylimino-3-isopropyl-5-(2,6-diethylphenyl)-tetrahydro-1,3,5-thiadiazin-4-one]	100%	80%	100%	100%	90%
CC(C)N1C(=O)N(c2cccc(C(F)(F)F)c2)CSC1=NC(C)(C)C [Compound 270]	60%	70%		100%	
CC(C)N=C1SCN(c2cccc(C(F)(F)F)c2)C(=O)N1C(C)C [Compound 265, 2-Isopropylimino-3-isopropyl-5-(m-trifluoromethylphenyl)-tetrahydro-1,3,5-thiadiazin-4-one]				100%	
CCN=C1SCN(c2ccccc2)C(=O)N1CC [Compound 125]				80%	
